The values below are quoted from earlier work in article PMC5131364, “Pharmacologic modulation of RORγt translates to efficacy in preclinical and translational models of psoriasis and inflammatory arthritis” (Scientific Reports, 2016).

One data set concerns mouse CIA model. Details: method as in PMID 24574218. Conditions: mouse CIA model ref 49; cited from earlier work.
The subject of a further data set is psoriatic skin. Particulars: after 12 weeks of treatment ref 70; cited from earlier work.

Regarding `OC(c1ccc(-c2ccc(CN3CCN(Cc4ccncc4)CC3)cc2)c(F)c1)(C(F)(F)F)C(F)(F)F` [SR2211], the “joint inflammation and clinical scores” value in the data set with mouse CIA model was “reduce joint inflammation”.
In the case of guselkumab: anti-IL-23 mAb, in the data set with psoriatic skin, the “IL-17A and IL-17F gene expression in psoriatic skin” value is reported as “significant inhibition”.
